Results taken from publication PMC5705272 (Neurobiology of aging, 2017).

Target: T1, PKC-λ/ι (PKC-ι) (Homo sapiens, UniProt P41743)
T1 sequence (P41743 2-596): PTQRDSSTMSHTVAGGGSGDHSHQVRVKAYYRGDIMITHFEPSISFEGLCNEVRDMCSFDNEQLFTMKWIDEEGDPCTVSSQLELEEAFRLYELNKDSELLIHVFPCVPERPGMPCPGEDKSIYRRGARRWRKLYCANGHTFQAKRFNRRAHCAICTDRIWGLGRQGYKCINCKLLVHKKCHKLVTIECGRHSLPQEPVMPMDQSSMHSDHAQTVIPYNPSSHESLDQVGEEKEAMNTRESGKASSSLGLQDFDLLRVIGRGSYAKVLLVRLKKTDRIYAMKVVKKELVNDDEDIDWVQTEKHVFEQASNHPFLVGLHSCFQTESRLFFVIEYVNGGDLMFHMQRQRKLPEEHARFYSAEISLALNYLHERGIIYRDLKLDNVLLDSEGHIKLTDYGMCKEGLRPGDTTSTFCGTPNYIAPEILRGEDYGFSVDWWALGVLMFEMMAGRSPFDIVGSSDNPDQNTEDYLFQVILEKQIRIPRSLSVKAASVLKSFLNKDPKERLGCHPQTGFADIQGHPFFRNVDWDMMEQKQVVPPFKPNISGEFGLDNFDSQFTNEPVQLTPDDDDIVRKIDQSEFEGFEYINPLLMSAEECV
Type: cell-based

## NC(=O)c1ncn([C@@H]2C[C@H](COP(=O)(O)O)[C@@H](O)[C@H]2O)c1N [ICAPP, 1H-imidazole-4-carboxamide,5-amino]-[2,3-dihydroxy-4-[(phosphono-oxy)methyl]cyclopentane-[1R-(1a,2b,3b,4a)]]
  IC50: 1 to 10 nM
